Results taken from patent US9745297B2, “Compounds as modulators of RORC” (Boehringer Ingelheim International GmbH, priority 2013, dated 2017).

Each compound was assayed against T1, RORγt (Homo sapiens, UniProt P51449) (assay: RGA Assay: nuclear receptor transactivation assay, RORγt transactivation of a luciferase reporter). Conditions: transiently transfected HEK 293 cells (pGL4.3 luc2P/GAL4UAS, pBIND Gal4DBD hRORC LBD), 20-24 hours incubation, luciferase readout.
T1 construct: expressed in transfected cells
T1 sequence (P51449 269-508 limits assumed): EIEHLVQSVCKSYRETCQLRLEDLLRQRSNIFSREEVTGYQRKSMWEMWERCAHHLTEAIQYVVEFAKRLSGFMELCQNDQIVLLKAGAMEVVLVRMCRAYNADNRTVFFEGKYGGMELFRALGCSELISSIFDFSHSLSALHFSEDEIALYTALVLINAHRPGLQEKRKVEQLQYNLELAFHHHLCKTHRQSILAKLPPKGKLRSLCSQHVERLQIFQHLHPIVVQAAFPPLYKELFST
Assay type: cell-based
Procedure: A nuclear receptor transactivation assay was performed to quantitate the ability of test compounds to inhibit RORγt transactivation of a luciferase reporter. A similar assay is described in: Khan et al., Bioorganic & Medicinal Chemistry Letters 23 (2013), 532-536. The system uses transiently transfected HEK 293 cells cotransfected with two plasmids (pGL4.3, luc2P/GAL4UAS/Hygro, and pBIND, Ga14DBD hRORC LBD1-3). The positive control is co-transiently transfected with both plasmids, and the negative control contains the pGL4.3 promoter sequence. Assays were assembled in 384 well plates where transiently transfected cells and test compound at varying concentrations were incubated for 20-24 hours. The next day, assays plates are taken out and equillibrated at RT for 20-30 minutes. Bright-Glo™ Luciferase Assay System is used to detect Luciferase production. After addition of Bright GLO detection reagent, the plates were incubated at RT for 20 minutes. The plates were read on an Envision plate reader to measure luminescence signal. The RLU signal is converted to POC relative to control and blank wells.
Compound Dilution Buffer:
Bright Glo Luciferase Assay System: Promega #E2620
Thaw lysis buffer provided in kit, add 100 mL lysis buffer to substrate powder.

Point of comparison: CCS(=O)(=O)c1ccc(CNC(=O)N2CC3(CCCC3)c3nc(-c4cncnc4C(F)(F)F)ccc32)cc1 [Example 35], IC50 2.1 µM. Against it:
- CNS(=O)(=O)c1ccc(CNC(=O)N2CC3(CCCC3)c3nc(-c4ccc(F)cc4C)ccc32)cc1 [Example 1] — within 1.5-fold, 1.6 µM
- Cc1cc(O)ccc1-c1ccc2c(n1)C(C)(C)CN2C(=O)NCc1ccc(C#N)cc1 [Example 2] — higher, > 30 µM
- COc1cc(C)c(-c2ccc3c(n2)C(C)(C)CN3C(=O)NCc2ccc(C#N)cc2)cn1 [Example 3] — higher, > 30 µM
- COc1ccc(-c2ccc3c(n2)C(C)(C)CN3C(=O)NCc2ccc(C#N)cc2)c(C(F)(F)F)c1 [Example 4] — 5.7-fold higher, 12 µM
- Cc1nc(N2CCOCC2)ccc1-c1ccc2c(n1)C1(CCCC1)CN2C(=O)NCc1ccc(S(C)(=O)=O)cc1 [Example 5] — higher, > 30 µM
- COC1CCCN(c2ccc(-c3ccc4c(n3)C3(CCCC3)CN4C(=O)NCc3ccc(S(C)(=O)=O)cc3)c(C)n2)C1 (stereo not drawn) [Example 6] — 11-fold higher, 24 µM
- COC1CCN(c2ccc(-c3ccc4c(n3)C3(CCCC3)CN4C(=O)NCc3ccc(S(C)(=O)=O)cc3)c(C)n2)CC1 [Example 7] — higher, > 30 µM
- CNC(=O)c1ccc(-c2ccc3c(n2)C2(CCCC2)CN3C(=O)NCc2ccc(S(C)(=O)=O)cc2)c(C)c1 [Example 8] — higher, > 30 µM
- CCNC(=O)c1ccc(-c2ccc3c(n2)C2(CCCC2)CN3C(=O)NCc2ccc(S(C)(=O)=O)cc2)c(C)c1 [Example 9] — 2-fold higher, 4.3 µM
- CCS(=O)(=O)c1ccc(CNC(=O)N2CC3(CCCC3)c3nc(-c4ccc(C#N)cc4C)ccc32)cc1 [Example 10] — 5.2-fold higher, 11 µM
- CCS(=O)(=O)c1ccc(CNC(=O)N2CC3(CCCC3)c3nc(-c4ccc(O)cc4C(F)(F)F)ccc32)cc1 [Example 11] — 19-fold lower, 0.11 µM
- CCS(=O)(=O)c1ccc(CNC(=O)N2CC3(CCCC3)c3nc(-c4ccc(OC)cc4C(F)(F)F)ccc32)cc1 [Example 12] — 4.4-fold lower, 0.48 µM
- CCS(=O)(=O)c1ccc(CNC(=O)N2CC3(CCCC3)c3nc(-c4cnc(OC)cc4C)ccc32)cc1 [Example 13] — 2.5-fold higher, 5.2 µM
- CCS(=O)(=O)c1ccc(CNC(=O)N2CC3(CCCC3)c3nc(-c4ccc(F)cc4C)ccc32)cc1 [Example 14] — 1.6-fold higher, 3.4 µM
- CCS(=O)(=O)c1ccc(CNC(=O)N2CC3(CCCC3)c3nc(-c4ccc(O)cc4C)ccc32)cc1 [Example 15] — 4.4-fold lower, 0.48 µM
- CC1(C)CN(C(=O)NCc2ccc(S(C)(=O)=O)cc2)c2ccc(Br)nc21 [Example 16] — higher, > 30 µM
- CNS(=O)(=O)c1ccc(CNC(=O)N2CC(C)(C)c3nc(Br)ccc32)cc1 [Example 17] — higher, > 30 µM
- COc1ccc(-c2ccc3c(n2)C(C)(C)CN3C(=O)NCc2ccc(S(C)(=O)=O)cc2)c(C(F)(F)F)c1 [Example 18] — 1.6-fold higher, 3.4 µM
- COc1cc(C)c(-c2ccc3c(n2)C(C)(C)CN3C(=O)NCc2ccc(S(C)(=O)=O)cc2)cn1 [Example 19] — 4.8-fold higher, 10 µM
- CC(C)c1ncncc1-c1ccc2c(n1)C(C)(C)CN2C(=O)NCc1ccc(S(C)(=O)=O)cc1 [Example 20] — 9-fold higher, 19 µM
- Cc1cc(O)ccc1-c1ccc2c(n1)C(C)(C)CN2C(=O)NCc1ccc(S(C)(=O)=O)cc1 [Example 21] — 5.7-fold higher, 12 µM
- Cc1cc(F)ccc1-c1ccc2c(n1)C(C)(C)CN2C(=O)NCc1ccc(S(C)(=O)=O)cc1 [Example 22] — higher, > 30 µM
- CNS(=O)(=O)c1ccc(CNC(=O)N2CC(C)(C)c3nc(-c4ccc(OC)cc4C(F)(F)F)ccc32)cc1 [Example 23] — within 1.5-fold, 1.8 µM
- CCS(=O)(=O)c1ccc(CNC(=O)N2CC3(CCCC3)c3nc(-c4c(C)ncnc4C)ccc32)cc1 [Example 24] — 2.8-fold higher, 5.9 µM
- CCS(=O)(=O)c1ccc(CNC(=O)N2CC3(CCCC3)c3nc(-c4cncnc4C(C)C)ccc32)cc1 [Example 25] — 1.8-fold lower, 1.2 µM
- CCS(=O)(=O)c1ccc(CNC(=O)N2CC3(CCCC3)c3nc(-c4c(OC)ncnc4C4CC4)ccc32)cc1 [Example 26] — 6-fold lower, 0.35 µM
- CCS(=O)(=O)c1ccc(CNC(=O)N2CC3(CCCC3)c3nc(-c4sc(OC)nc4C)ccc32)cc1 [Example 27] — 3.8-fold higher, 8 µM
- CCS(=O)(=O)c1ccc(CNC(=O)N2CC3(CCCC3)c3nc(-c4c(C)nn(CCN(C)C)c4C)ccc32)cc1 [Example 28] — higher, > 30 µM
- CCS(=O)(=O)c1ccc(CNC(=O)N2CC3(CCCC3)c3nc(-c4c(C(C)C)n[nH]c4C)ccc32)cc1 [Example 29] — within 1.5-fold, 1.7 µM
- CCS(=O)(=O)c1ccc(CNC(=O)N2CC3(CCCC3)c3nc(-c4c(C)n[nH]c4C)ccc32)cc1 [Example 31] — higher, > 30 µM
- CCS(=O)(=O)c1ccc(CNC(=O)N2CC3(CCCC3)c3nc(-c4sc(N)nc4C(F)(F)F)ccc32)cc1 [Example 32] — 8.1-fold higher, 17 µM
- CCS(=O)(=O)c1ccc(CNC(=O)N2CC3(CCCC3)c3nc(-c4cnc(N(C)C)nc4C(F)(F)F)ccc32)cc1 [Example 33] — 1.8-fold lower, 1.2 µM
- COCCOc1cc(C#N)ccc1CNC(=O)N1CC2(CCCC2)c2nc(-c3cncnc3C(C)C)ccc21 [Example 34] — 5.2-fold higher, 11 µM
- CCS(=O)(=O)c1ccc(CNC(=O)N2CC3(CCCC3)c3nc(-c4c(C)nn(C)c4C)ccc32)cc1 [Example 36] — 7.6-fold higher, 16 µM
- CCS(=O)(=O)c1ccc(CNC(=O)N2CC3(CCCC3)c3nc(-c4ncc(C)nc4C)ccc32)cc1 [Example 37] — higher, > 30 µM
- CCS(=O)(=O)c1ccc(CNC(=O)N2CC3(CCCC3)c3nc(-c4ncc(C(F)(F)F)cn4)ccc32)cc1 [Example 38] — higher, > 30 µM
- CCS(=O)(=O)c1ccc(CNC(=O)N2CC3(CCCC3)c3nc(-c4nnccc4C(F)(F)F)ccc32)cc1 [Example 39] — higher, > 30 µM
- CCS(=O)(=O)c1ccc(CNC(=O)N2CC3(CCCC3)c3nc(-c4ncc(N(C)C)nc4C4CC4)ccc32)cc1 [Example 40] — within 1.5-fold, 1.6 µM
- CCS(=O)(=O)c1ccc(CNC(=O)N2CC3(CCCC3)c3nc(-c4nc(C)cnc4C)ccc32)cc1 [Example 41] — higher, > 30 µM
- CNS(=O)(=O)c1ccc(CNC(=O)N2CC(C)(C)c3nc(-c4ccc(F)cc4C)ccc32)cc1 [Example 42] — 4.8-fold higher, 10 µM
- CNS(=O)(=O)c1ccc(CNC(=O)N2CC(C)(C)c3nc(-c4ccc(O)cc4C)ccc32)cc1 [Example 43] — 4-fold higher, 8.5 µM
- CNS(=O)(=O)c1ccc(CNC(=O)N2CC(C)(C)c3nc(-c4cnc(OC)cc4C)ccc32)cc1 [Example 44] — 8.6-fold higher, 18 µM
- CNS(=O)(=O)c1ccc(CNC(=O)N2CC(C)(C)c3nc(-c4cncnc4C(C)C)ccc32)cc1 [Example 45] — 4.3-fold higher, 9.1 µM
- COc1ccc(-c2ccc3c(n2)C2(CCCC2)CN3C(=O)NCc2ccc(C#N)cc2)c(C(F)(F)F)c1 [Example 46] — 2-fold higher, 4.1 µM
- COc1cc(C)c(-c2ccc3c(n2)C2(CCCC2)CN3C(=O)NCc2ccc(C#N)cc2)cn1 [Example 47] — 7.1-fold higher, 15 µM
- CC1(C)CN(C(=O)NCc2ccc(S(C)(=O)=O)cc2)c2ccc(Oc3ccc(F)c(OC(F)(F)F)c3)nc21 [Example 48] — 3.1-fold higher, 6.6 µM
- CNS(=O)(=O)c1ccc(CNC(=O)N2CC(C)(C)c3nc(Oc4ccc(F)c(OC(F)(F)F)c4)ccc32)cc1 [Example 49] — 2-fold higher, 4.1 µM
- Cc1cc(F)ccc1-c1ccc2c(n1)C1(CCCC1)CN2C(=O)NCc1ccc(S(C)(=O)=O)cc1 [Example 50] — 4.1-fold higher, 8.6 µM
- CNS(=O)(=O)c1ccc(CNC(=O)N2CC3(CCCC3)c3nc(-c4ccc(OC)cc4C(F)(F)F)ccc32)cc1 [Example 51] — 3-fold lower, 0.71 µM
- COc1ccc(-c2ccc3c(n2)C2(CCCC2)CN3C(=O)NCc2ccc(S(C)(=O)=O)cc2)c(C(F)(F)F)c1 [Example 52] — 2.3-fold lower, 0.93 µM
- Cc1cc(O)ccc1-c1ccc2c(n1)C1(CCCC1)CN2C(=O)NCc1ccc(S(C)(=O)=O)cc1 [Example 54] — 1.5-fold lower, 1.4 µM
- CNS(=O)(=O)c1ccc(CNC(=O)N2CC3(CCCC3)c3nc(-c4cncnc4C(C)C)ccc32)cc1 [Example 55] — 1.9-fold lower, 1.1 µM
- CC(C)c1ncncc1-c1ccc2c(n1)C1(CCCC1)CN2C(=O)NCc1ccc(S(C)(=O)=O)cc1 [Example 56] — within 1.5-fold, 1.6 µM
- CNS(=O)(=O)c1ccc(CNC(=O)N2CC3(CCCC3)c3nc(-c4cnc(OC)cc4C)ccc32)cc1 [Example 57] — 2.5-fold higher, 5.2 µM
- COc1cc(C)c(-c2ccc3c(n2)C2(CCCC2)CN3C(=O)NCc2ccc(S(C)(=O)=O)cc2)cn1 [Example 58] — 3.8-fold higher, 8 µM
- CS(=O)(=O)c1ccc(CNC(=O)N2CC3(CCCC3)c3nc(Oc4ccc(C(F)(F)F)nc4)ccc32)cc1 [Example 59] — higher, > 30 µM
- Cc1cc(C)c(Oc2ccc3c(n2)C2(CCCC2)CN3C(=O)NCc2ccc(S(C)(=O)=O)cc2)cn1 [Example 60] — 4-fold higher, 8.5 µM
- CNS(=O)(=O)c1ccc(CNC(=O)N2CC3(CCCC3)c3nc(Oc4cnc(C)cc4C)ccc32)cc1 [Example 61] — 3.6-fold higher, 7.6 µM
- CS(=O)(=O)c1ccc(CNC(=O)N2CC3(CCCC3)c3nc(Cl)ccc32)cc1 [Example 62] — higher, > 30 µM
- CCS(=O)(=O)c1ccc(CNC(=O)N2CC3(CCCC3)c3nc(-c4cn5ccnc5cc4C)ccc32)cc1 [Example 63] — higher, > 30 µM
- CCS(=O)(=O)c1ccc(CNC(=O)N2CC3(CCCC3)c3nc(-c4cnc(C#N)nc4C4CC4)ccc32)cc1 [Example 64] — 7.6-fold higher, 16 µM
- CS(=O)(=O)c1ccc(CNC(=O)N2CC3(CCCC3)c3nc(-c4cnc(C#N)nc4C4CC4)ccc32)cc1 [Example 65] — 8.6-fold higher, 18 µM
